These are literature values, as cited in publication PMC7395068, “The evolution of strategies to minimise the risk of human drug-induced liver injury (DILI) in drug discovery and development” (Archives of Toxicology, 2020).

The structures appear in SMILES notation. Like-named read-outs stand apart in the source and are kept apart here.

Series [1] has as its system PHH. The following applies: cited from earlier work.
In series [2] the test system is isolated mouse liver mitochondria. The conditions noted are these: In vitro Assay; ref Porceddu 2012; cited from earlier work.
In series [3] the test system is hLiMTs. The following applies: cited from earlier work.
For series [4], the system named is primary human hepatocytes, NIH3T3 fibroblasts, BSEP, CYP3A4. The conditions noted are these: In vitro Assay; ref Schadt 2015; cited from earlier work.
For series [5] the following is noted: cited from earlier work.
Series [6] has as its system THLE or HepG2 cells, isolated mitochondria, BSEP. The conditions noted are these: In vitro Assay; ref Aleo 2019; cited from earlier work.
The conditions of series [7]: ref Chen 2016; cited from earlier work.
Series [8] concerns HepG2 cells. The following applies: cited from earlier work.
Setting [9] is: In vitro Assay, ref Proctor 2017.

Turning to `CC(C)c1c(C(=O)Nc2ccccc2)c(-c2ccccc2)c(-c2ccc(F)cc2)n1CC[C@@H](O)C[C@@H](O)CC(=O)O` [atorvastatin], the “PHH ATP <100uM” value in series [1] (setting [9]) is “-VE”. The “in vitro data EC20<=2uM” value in series [2] is listed as “+VE”. Besides, the “hLiMTs ATP <100uM” value in series [3] (setting [9]) is “+VE (IC50 threshold of 100 µM)”.
For `C[C@]12CC[C@@H]3c4ccc(O)cc4CC[C@H]3[C@@H]1CC[C@@H]2O` [beta-estradiol], in series [1] (setting [9]), the “PHH ATP <100uM” value is reported as “-VE”. In series [2], the “in vitro data EC2<=1x Cmax” value was “-VE” and the “in vitro data EC20<=2uM” value is “-VE”. Besides, the “hLiMTs ATP <100uM” value in series [3] (setting [9]) was “+VE (IC50 threshold of 100 µM)”.
Take `[H]/N=C(/N)c1ccc(NCc2nc3cc(C(=O)N(CCC(=O)O)c4ccccn4)ccc3n2C)cc1` [dabigatran]: in series [1] (setting [9]), the “PHH ATP <100uM” value was “-VE”. The “hLiMTs ATP <100uM” value in series [3] (setting [9]) was “-VE”. Besides, in series [4], the “Cellular toxicity (3T3 cells)” value is recorded as “-VE”, the “Combined Assay” value is listed as “-VE”, the “GSH adduct HML” value was “-VE” and the Hepatocyte cellular toxicity result is recorded as “+VE”. Moreover, in series [4], the “MitoTox 3T3” value is “-VE”, the “TDI CYP3A4” value is listed as “-VE” and the hBSEP inhibition entry is “+VE”. Further, in series [5] (ref Proctor 2017), the “In vivo DILI” value is given as “-VE”. Also, the “In vivo DILI” value in series [5] (ref Schadt 2015) was “-VE”.
In the case of `CC(C)(C)NC[C@H](O)COc1ccccc1C1CCCC1` [penbutolol], in series [1] (setting [9]), the “PHH ATP <100uM” value was “+VE (IC50 threshold of 100 µM)”. Also, the “hLiMTs ATP <100uM” value in series [3] (setting [9]) is recorded as “+VE (IC50 threshold of 100 µM)”. In series [6], the “Partition Hybrid HRM Score” value is listed as “-VE” and the “Ro2 Hybrid HRM Score” value is on record as “-VE”. For the same compound, in series [7], the “DILI +VE (5-8), DILI -VE (-4)” value is on record as “-VE” and the DILI severity category result is reported as “vNo-DILI-Concern”. Further, in series [4], the “Cellular toxicity (3T3 cells)” value is “-VE”, the “Combined Assay” value is “-VE”, the “GSH adduct HML” value is “-VE” and the Hepatocyte cellular toxicity entry is on record as “-VE”. Moreover, in series [4], the “MitoTox 3T3” value was “-VE”, the “TDI CYP3A4” value is reported as “-VE” and the hBSEP inhibition result is on record as “-VE”. Also, the “In vivo DILI” value in series [5] (ref Aleo 2019) is given as “-VE”. For the same compound, in series [5] (ref Proctor 2017), the “In vivo DILI” value was “-VE”. In addition, in series [5] (ref Schadt 2015), the “In vivo DILI” value was “-VE”.
Regarding `[H]/N=C(/N)N/C(=N/[H])NCCc1ccccc1` [phenformin], the “PHH ATP <100uM” value in series [1] (setting [9]) is given as “+VE (IC50 threshold of 100 µM)”. The “Structural based (HCI)” value in series [8] (In vitro Assay, ref O'Brien 2006) was “+VE (lowest HCI endpoint IC50 (or in the absence of dose–response < 100 µM) < 30 × total human plasma exposure levels (Cmax.tot))”. In series [3] (setting [9]), the “hLiMTs ATP <100uM” value is reported as “+VE (IC50 threshold of 100 µM)”. The “In vivo DILI” value in series [5] (ref O'Brien 2006) was “-VE”; in series [5] (ref Proctor 2017), “+VE”.
Take `CCN(CC)CCCC(C)Nc1c2ccc(Cl)cc2nc2ccc(OC)cc12` (stereo not drawn) [quinacrine]: the “PHH ATP <100uM” value in series [1] is reported as “+VE (key: +VE: IC50 threshold of 100 µM)”. Besides, the “Structural based (HCI)” value in series [8] is reported as “+VE (key: +VE: lowest HCI endpoint IC50 (or in the absence of dose–response < 100 µM) < 30 × total human plasma exposure levels (Cmax.tot))”. Further, in series [3], the “hLiMTs ATP <100uM” value is “+VE (key: +VE: IC50 threshold of 100 µM)”. Moreover, the “In vivo DILI” value in series [5] (in vivo) is “+VE”.
Consider `CN[C@@H]1[C@H](O)[C@H](NC)[C@H]2O[C@@]3(O)C(=O)C[C@@H](C)O[C@H]3O[C@@H]2[C@H]1O` [spectinomycin], for which the “PHH ATP <100uM” value in series [1] (setting [9]) is reported as “-VE”. In series [2], the “in vitro data EC2<=1x Cmax” value was “+VE” and the “in vitro data EC20<=2uM” value is listed as “+VE”. Moreover, in series [3] (setting [9]), the “hLiMTs ATP <100uM” value was “-VE”. In series [7], the “DILI +VE (5-8), DILI -VE (-4)” value is “-VE” and the DILI severity category entry was “Ambiguous DILI-concern”. In addition, the “In vivo DILI” value in series [5] (ref Porceddu 2012) is “+VE”. The “In vivo DILI” value in series [5] (ref Proctor 2017) is given as “+VE”.
